Test results taken from patent publication US20210032257A1, “(E)-1-(4-(DIMETHYLAMINO)BUT-2-ENOYL)PYRROLIDIN-3-YL 4-((3-ISOPROPYL-5-METHYLPYRAZOLO[1,5-A]PYRIMIDIN-7-YL)AMINO)PIPERIDINE-1-CARBOXYLATE FOR INHIBITING CDK7” (Eli Lilly and Company, priority 2017, published 2021).

Assays:
Assay in all cases: Biomarker study proliferation (CellTiter-Glo)
Type in all cases: cell-based
A2058 = system: A2058
How it was run: (§1)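 Luminescence from CellTiter-Glo, read 15 minutes after reagent addition, measures viable cells after a seven-day compound exposure at 37 °C. Plating is 5000 cells per well in recommended medium such as RPMI 1640 with 10% FBS.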

A549 = system: A549
How it was run: as §1

C33A = system: C33A
How it was run: as §1

GL261 = system: GL261
How it was run: as §1

HCC1143 = system: HCC1143
How it was run: as §1

HCC1806 = system: HCC1806
How it was run: as §1

HEPG2 = system: HEPG2
How it was run: as §1

HUH7 = system: HUH7
How it was run: as §1

KLE = system: KLE
How it was run: as §1

KYSE270 = system: KYSE270
How it was run: as §1

KYSE520 = system: KYSE520
How it was run: as §1

MDAMB231 = system: MDAMB231
How it was run: as §1

MDAMB453 = system: MDAMB453
How it was run: as §1

MHCC97L = system: MHCC97L
How it was run: as §1

NCIH522 = system: NCIH522
How it was run: as §1

OAW42 = system: OAW42
How it was run: as §1

SAOS2 = system: SAOS2
How it was run: as §1

SNU5 = system: SNU5
How it was run: as §1

TCCSUP = system: TCCSUP
How it was run: as §1

## Cc1cc(NC2CCN(C(=O)O[C@H]3CCN(C(=O)/C=C/CN(C)C)C3)CC2)n2ncc(C(C)C)c2n1 [Example 1, [(3S)-1-[(E)-4-(dimethylamino)but-2-enoyl]pyrrolidin-3-yl] 4-[(3-isopropyl-5-methyl-pyrazolo[1,5-a]pyrimidin-7-yl)amino]piperidine-1-carboxylate]
A2058; A2058, SKIN, 7 days
  Anti-proliferation effect % Inh.: 97%
  Anti-proliferation effect Outcome: Cytotoxic (cytotoxic (IC50<1 μM and % inhibition ≥70%))
A2058; Homo sapiens, A2058, 168 h, read-out: Anti-proliferation effect IC50
  IC50: 30 nM
A549; A549, LUNG, 7 days
  Anti-proliferation effect % Inh.: 64%
  Anti-proliferation effect Outcome: Cytostatic (cytostatic (IC50<1 μM and % inhibition <70%))
A549; Homo sapiens, A549, 168 h, read-out: Anti-proliferation effect IC50
  IC50: 139 nM
C33A; C33A, CERVIX, 7 days
  Anti-proliferation effect % Inh.: 79%
C33A; C33A, ENDOMETRIUM, 7 days
  Anti-proliferation effect Outcome: Cytotoxic (cytotoxic (IC50<1 μM and % inhibition ≥70%))
C33A; Homo sapiens, C-33-A, 168 h, read-out: Anti-proliferation effect IC50
  IC50: 14 nM
GL261; GL261, BRAIN, 7 days
  Anti-proliferation effect % Inh.: 85%
  Anti-proliferation effect Outcome: Cytotoxic (cytotoxic (IC50<1 μM and % inhibition ≥70%))
GL261; Mus musculus, GL261, 168 h, read-out: Anti-proliferation effect IC50
  IC50: 38 nM
HCC1143; HCC1143, BREAST, 7 days
  Anti-proliferation effect % Inh.: 37%
  Anti-proliferation effect Outcome: Insensitive (insensitive (IC50≥1 μM))
HCC1143; Homo sapiens, HCC1143, 168 h, read-out: Anti-proliferation effect IC50
  IC50: > 10000 nM
HCC1806; HCC1806, BREAST, 7 days
  Anti-proliferation effect % Inh.: 99%
  Anti-proliferation effect Outcome: Cytotoxic (cytotoxic (IC50<1 μM and % inhibition ≥70%))
HCC1806; Homo sapiens, HCC1806, 168 h, read-out: Anti-proliferation effect IC50
  IC50: 14 nM
HEPG2; HEPG2, LIVER, 7 days
  Anti-proliferation effect % Inh.: 78%
  Anti-proliferation effect Outcome: Cytotoxic (cytotoxic (IC50<1 μM and % inhibition ≥70%))
HEPG2; Homo sapiens, HepG2, 168 h, read-out: Anti-proliferation effect IC50
  IC50: 28 nM
HUH7; HUH7, LIVER, 7 days
  Anti-proliferation effect % Inh.: 64%
  Anti-proliferation effect Outcome: Cytostatic (cytostatic (IC50<1 μM and % inhibition <70%))
HUH7; Homo sapiens, Huh-7, 168 h, read-out: Anti-proliferation effect IC50
  IC50: 175 nM
KLE; ENDOMETRIUM, 7 days
  Anti-proliferation effect % Inh.: 65%
  Anti-proliferation effect Outcome: Cytostatic (cytostatic (IC50<1 μM and % inhibition <70%))
KLE; Homo sapiens, 168 h, read-out: Anti-proliferation effect IC50
  IC50: 28 nM
KYSE270; Homo sapiens, KYSE-270, 168 h, read-out: Anti-proliferation effect IC50
  IC50: > 10000 nM
KYSE270; KYSE270, OESOPHAGUS, 7 days
  Anti-proliferation effect % Inh.: −180%
  Anti-proliferation effect Outcome: Insensitive (insensitive (IC50≥1 μM))
KYSE520; Homo sapiens, KYSE-520, 168 h, read-out: Anti-proliferation effect IC50
  IC50: > 10000 nM
KYSE520; KYSE520, OESOPHAGUS, 7 days
  Anti-proliferation effect % Inh.: 50%
  Anti-proliferation effect Outcome: Insensitive (insensitive (IC50≥1 μM))
MDAMB231; Homo sapiens, MDA-MB-231, 168 h, read-out: Anti-proliferation effect IC50
  IC50: 2820 nM
MDAMB231; MDAMB231, BREAST, 7 days
  Anti-proliferation effect % Inh.: 23%
  Anti-proliferation effect Outcome: Insensitive (insensitive (IC50≥1 μM))
MDAMB453; Homo sapiens, MDA-MB-453, 168 h, read-out: Anti-proliferation effect IC50
  IC50: 39 nM
MDAMB453; MDAMB453, BREAST, 7 days
  Anti-proliferation effect % Inh.: 56%
  Anti-proliferation effect Outcome: Cytostatic (cytostatic (IC50<1 μM and % inhibition <70%))
MHCC97L; 168 h, read-out: Anti-proliferation effect IC50
  IC50: 526 nM
MHCC97L; LIVER, 7 days
  Anti-proliferation effect % Inh.: 45%
  Anti-proliferation effect Outcome: Cytostatic (cytostatic (IC50<1 μM and % inhibition <70%))
NCIH522; Homo sapiens, NCI-H522, 168 h, read-out: Anti-proliferation effect IC50
  IC50: 107 nM
NCIH522; NCIH522, LUNG, 7 days
  Anti-proliferation effect % Inh.: 50%
  Anti-proliferation effect Outcome: Cytostatic (cytostatic (IC50<1 μM and % inhibition <70%))
OAW42; Homo sapiens, OAW-42, 168 h, read-out: Anti-proliferation effect IC50
  IC50: 136 nM
OAW42; OAW42, OVARY, 7 days
  Anti-proliferation effect % Inh.: 88%
  Anti-proliferation effect Outcome: Cytotoxic (cytotoxic (IC50<1 μM and % inhibition ≥70%))
SAOS2; Homo sapiens, SAOS-2, 168 h, read-out: Anti-proliferation effect IC50
  IC50: 28 nM
SAOS2; SAOS2, BONE, 7 days
  Anti-proliferation effect % Inh.: 66%
  Anti-proliferation effect Outcome: Cytostatic (cytostatic (IC50<1 μM and % inhibition <70%))
SNU5; Homo sapiens, SNU-5, 168 h, read-out: Anti-proliferation effect IC50
  IC50: 39 nM
SNU5; SNU5, STOMACH, 7 days
  Anti-proliferation effect % Inh.: 79%
  Anti-proliferation effect Outcome: Cytotoxic (cytotoxic (IC50<1 μM and % inhibition ≥70%))
TCCSUP; Homo sapiens, TCC-SUP, 168 h, read-out: Anti-proliferation effect IC50
  IC50: 40 nM
TCCSUP; TCCSUP, URINARY, 7 days
  Anti-proliferation effect % Inh.: 61%
  Anti-proliferation effect Outcome: Cytostatic (cytostatic (IC50<1 μM and % inhibition <70%))
